This assay addresses T1, sSema 4D (Homo sapiens, UniProt Q92854).
T1 construct: purchased Novoprotein Ltd. (Suzhou, China)
T1 sequence (Q92854 22-734 limits assumed): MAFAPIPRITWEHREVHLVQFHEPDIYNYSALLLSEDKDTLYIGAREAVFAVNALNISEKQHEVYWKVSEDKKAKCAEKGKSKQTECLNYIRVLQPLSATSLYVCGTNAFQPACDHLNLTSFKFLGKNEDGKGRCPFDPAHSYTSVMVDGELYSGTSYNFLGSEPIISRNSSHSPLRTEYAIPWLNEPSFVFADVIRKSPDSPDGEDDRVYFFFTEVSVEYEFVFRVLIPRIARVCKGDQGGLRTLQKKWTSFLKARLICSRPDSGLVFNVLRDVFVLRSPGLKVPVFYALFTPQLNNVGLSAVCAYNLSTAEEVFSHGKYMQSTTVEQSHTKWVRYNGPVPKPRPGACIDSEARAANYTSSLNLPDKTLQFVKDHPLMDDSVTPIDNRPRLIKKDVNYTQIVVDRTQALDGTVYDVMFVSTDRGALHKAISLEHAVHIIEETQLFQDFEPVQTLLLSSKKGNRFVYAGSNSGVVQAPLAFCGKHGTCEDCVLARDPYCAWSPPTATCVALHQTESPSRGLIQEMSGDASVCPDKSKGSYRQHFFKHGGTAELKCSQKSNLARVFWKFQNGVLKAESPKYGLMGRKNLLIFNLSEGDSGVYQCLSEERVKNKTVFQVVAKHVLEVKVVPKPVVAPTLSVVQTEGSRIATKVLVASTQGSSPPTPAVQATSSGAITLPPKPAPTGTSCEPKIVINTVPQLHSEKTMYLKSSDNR
In words: SPRi binding affinity of TPs to sSema 4D. To be noted: SPRi (surface plasmon resonance imaging). On the procedure: To carry out the library screening, we first labeled the sSema4D with fluorescein isothiocyanate isomer (FITC), as shown in Figure 2E. Next, ≈10^6 beads library was incubated with FITC‐labeled sSema4D for 6 hours. The beads were thoroughly washed with DMF, water and methanol. Finally, under the fluorescence microscope, the beads with […] to sSema4D or FITC‐labeled sSema4D through noncovalent bonding were identified in Figure 2F. We selected twelve strongest putative fluorescent beads by physical separation. Subsequently, the corresponding peptides were cleaved off with BrCN from beads and analyzed by automatic Edman sequencing. The structures and sequence of transformable peptides (TPs) were determined and summarized (Figure S2, Supporting Information). TP‐1 to TP‐12 were resynthesized into solid phase and purified by high performance liquid chromatography (HPLC). The binding affinity of TPs toward sSema 4D was measured by enzyme‐linked immunosorbent assay (ELISA) and surface plasmon resonance imaging (SPRi). […] TP‐2 and TP‐7 were selected as the candidate TP binding sSema 4D to construct SSP. Subsequent SSP monomers (SSP‐1, sequence: C16‐FFVLK‐KQKRPRH; SSP‐2 C16‐FFVLK‐KNKAAKG) were synthesized and characterized by HPLC and Matrix‐assisted laser desorption/ionization time‐of‐flight mass spectrometry (MALDI‐TOF‐MS).
A general note: Surface plasmon resonance follows binding to a sensor surface in real time, without labels.

Where a SMILES comes first, the peptide text is derived from it.

`N=C(N)NCCC[C@H](NC(=O)[C@@H]1CCCN1C(=O)[C@H](CCCNC(=N)N)NC(=O)[C@H](CCCCN)NC(=O)[C@H](CCC(N)=O)NC(=O)[C@@H](N)CCCCN)C(=O)N[C@@H](Cc1c[nH]cn1)C(=O)O` [TP-7] (H-KQKRPRH-OH): the Kd – broadly, the free concentration of one partner at which half of the binding sites on the other are occupied at equilibrium, for simple one-to-one binding – was 0.0146 µM. `CC(C)[C@H](NC(=O)[C@H](CCCNC(=N)N)NC(=O)[C@H](C)NC(=O)[C@@H]1CCCN1C(=O)[C@H](C)NC(=O)[C@@H](N)CCCCN)C(=O)NCC(=O)O` [TP-10] (H-KAPARVG-OH) returned a Kd of 0.064 µM. This Kd is about 4.4-fold higher than that of the compound before. With `C[C@H](NC(=O)[C@H](C)NC(=O)[C@H](CCCCN)NC(=O)[C@H](CC(N)=O)NC(=O)[C@@H](N)CCCCN)C(=O)N[C@@H](CCCCN)C(=O)NCC(=O)O` [TP-2] (H-KNKAAKG-OH) the figure was 0.0417 µM.

Source of the values: paper PMC9875641, “Ophthalmic Solution of Smart Supramolecular Peptides to Capture Semaphorin 4D against Diabetic Retinopathy” (Advanced Science, 2022).
